# Experimental data reported in PubChem BioAssay AID2060899 (Molecular Pharmacology Branch, DTP, NCI, 2025).
# System: 565726-208-R1-J5-PDC complex spheroids, growth inhibition
# Experiment: Anticancer human tumor 565726-208-R1-J5-PDC patient-derived pancreatic adenocarcinoma cell line growth inhibition [RAS]
# Settings: for IC50: curve of first compound; for viability, T/C: stronger effect = lower value
# How it was run: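 Multi-cell-type spheroids: tumor cells plus HUVEC endothelial cells and mesenchymal stem cells. RAS-pathway inhibitors were combined with targeted agents, each dosed in half-log steps down from clinical Cmax, or from 10 microM when Cmax was unknown.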
# 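Further: spheroids exposed to compounds for seven days before readout.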
# 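Wherever viability, T/C is given: 100% = DMSO vehicle control viability.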
smiles,measurement,setting,value
CC1(C)CCC(Nc2ncc(C(F)(F)F)c(-c3c[nH]c4c(P(C)(C)=O)c(C#N)ccc34)n2)CN1 (configuration not stated) + C#Cc1c(F)ccc2cc(O)cc(-c3ncc4c(N5CC6CCC(C5)N6)nc(OCC56CCCN5CC(F)C6)nc4c3F)c12,IC50,second compound 0.0316 µM,6.41 nM
same,IC50,second compound 0.1 µM,6.67 nM
same,IC50,second compound 0.316 µM,6.82 nM
same,IC50,second compound 1 µM,7.75 nM
same,IC50,second compound 3.16 µM,11.6 nM
same,IC50,second compound 10 µM,2.98 nM
same,"viability, T/C","second compound 0.0316 µM, first compound 0.000949 µM",87.7%
same,"viability, T/C","second compound 0.0316 µM, first compound 0.003 µM",75.5%
same,"viability, T/C","second compound 0.0316 µM, first compound 0.00949 µM",36.9%
same,"viability, T/C","second compound 0.0316 µM, first compound 0.03 µM",33.9%
same,"viability, T/C","second compound 0.0316 µM, first compound 0.0949 µM",35.6%
same,"viability, T/C","second compound 0.0316 µM, first compound 0.3 µM",36.8%
same,"viability, T/C","second compound 0.1 µM, first compound 0.000949 µM",77.7%
same,"viability, T/C","second compound 0.1 µM, first compound 0.003 µM",64%
same,"viability, T/C","second compound 0.1 µM, first compound 0.00949 µM",44.5%
same,"viability, T/C","second compound 0.1 µM, first compound 0.03 µM",35.6%
same,"viability, T/C","second compound 0.1 µM, first compound 0.0949 µM",39.9%
same,"viability, T/C","second compound 0.1 µM, first compound 0.3 µM",40.6%
same,"viability, T/C","second compound 0.316 µM, first compound 0.000949 µM",75%
same,"viability, T/C","second compound 0.316 µM, first compound 0.003 µM",68.5%
same,"viability, T/C","second compound 0.316 µM, first compound 0.00949 µM",42.5%
same,"viability, T/C","second compound 0.316 µM, first compound 0.03 µM",42.2%
same,"viability, T/C","second compound 0.316 µM, first compound 0.0949 µM",43.7%
same,"viability, T/C","second compound 0.316 µM, first compound 0.3 µM",37.6%
same,"viability, T/C","second compound 1 µM, first compound 0.000949 µM",65.7%
same,"viability, T/C","second compound 1 µM, first compound 0.003 µM",64.6%
same,"viability, T/C","second compound 1 µM, first compound 0.00949 µM",46.1%
same,"viability, T/C","second compound 1 µM, first compound 0.03 µM",44.3%
same,"viability, T/C","second compound 1 µM, first compound 0.0949 µM",54%
same,"viability, T/C","second compound 1 µM, first compound 0.3 µM",43%
same,"viability, T/C","second compound 3.16 µM, first compound 0.000949 µM",60%
same,"viability, T/C","second compound 3.16 µM, first compound 0.003 µM",59.3%
same,"viability, T/C","second compound 3.16 µM, first compound 0.00949 µM",46.5%
same,"viability, T/C","second compound 3.16 µM, first compound 0.03 µM",45.3%
same,"viability, T/C","second compound 3.16 µM, first compound 0.0949 µM",50.4%
same,"viability, T/C","second compound 3.16 µM, first compound 0.3 µM",45.7%
same,"viability, T/C","second compound 10 µM, first compound 0.000949 µM",62.6%
same,"viability, T/C","second compound 10 µM, first compound 0.003 µM",50.2%
same,"viability, T/C","second compound 10 µM, first compound 0.00949 µM",47.2%
same,"viability, T/C","second compound 10 µM, first compound 0.03 µM",47.4%
same,"viability, T/C","second compound 10 µM, first compound 0.0949 µM",52.6%
same,"viability, T/C","second compound 10 µM, first compound 0.3 µM",46.5%
